One assay addresses T1, human PPARα (Homo sapiens, UniProt Q07869).
T1 construct: expressed in transfected cells; host or cells: HEK-293
T1 sequence (Q07869 239-466 limits assumed): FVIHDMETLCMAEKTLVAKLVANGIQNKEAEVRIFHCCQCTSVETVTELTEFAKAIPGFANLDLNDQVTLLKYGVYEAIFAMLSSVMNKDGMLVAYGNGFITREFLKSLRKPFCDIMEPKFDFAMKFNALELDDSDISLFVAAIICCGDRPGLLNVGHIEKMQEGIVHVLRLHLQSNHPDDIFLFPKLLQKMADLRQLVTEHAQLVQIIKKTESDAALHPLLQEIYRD
Briefly: in vitro PPARα transactivation (GAL4-LBD luciferase reporter in HEK-293 cells). Format: cell-based. The text has this: Generally, suitable PPAR agonists are believed to be useful for attenuating and/or treatment of diabetic dyslipidemia, metabolic syndrome, diabetes, cardiovascular disease, and obesity. The following procedure was used for in vitro determination of PPARα, γ and δ transactivation.
(§1) The ligand binding domain of human PPARγ1, PPARα or PPARδ was fused to the C-terminal end of DNA binding domain of yeast transcription factor GAL4 in eukaryotic expression vector. Using SuperFect (Qiagen), HEK-293 cells were transfected with this plasmid and a reporter plasmid harboring the luciferase gene driven under the control of 5 tandem GLA4 response elements. In some experiments, pAdVantage vector (Promega) was used to enhance luciferase expression. Compounds were added approximately 48 hours after transfection at various concentrations and incubated overnight. The cells were lysed and the luciferase activity was measured using the LucLite kit in Top Count (Packard). Luciferase activity was expressed as fold activation relative to untreated cells in the same experiment.

The target of a further assay is T2, human PPARγ1 (Homo sapiens, UniProt P37231).
T2 construct: expressed in transfected cells; host or cells: HEK-293
T2 sequence (P37231 238-503 limits assumed): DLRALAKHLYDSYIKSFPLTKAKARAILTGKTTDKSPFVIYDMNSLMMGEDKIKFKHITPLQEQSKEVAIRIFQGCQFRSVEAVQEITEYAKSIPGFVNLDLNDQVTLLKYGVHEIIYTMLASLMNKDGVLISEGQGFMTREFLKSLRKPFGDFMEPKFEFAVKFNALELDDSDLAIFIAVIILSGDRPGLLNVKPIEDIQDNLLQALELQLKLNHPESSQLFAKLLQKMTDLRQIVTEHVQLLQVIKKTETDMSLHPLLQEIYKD
Briefly: in vitro PPARγ transactivation (GAL4-LBD luciferase reporter in HEK-293 cells). Format: cell-based.
Source text: (§2) The following procedure was used for in vitro determination of PPARα, γ and δ transactivation.
as §1

The target in the next assay is T3, human PPARδ (Homo sapiens, UniProt Q03181).
T3 construct: expressed in transfected cells; host or cells: HEK-293
T3 sequence (Q03181 211-439 limits assumed): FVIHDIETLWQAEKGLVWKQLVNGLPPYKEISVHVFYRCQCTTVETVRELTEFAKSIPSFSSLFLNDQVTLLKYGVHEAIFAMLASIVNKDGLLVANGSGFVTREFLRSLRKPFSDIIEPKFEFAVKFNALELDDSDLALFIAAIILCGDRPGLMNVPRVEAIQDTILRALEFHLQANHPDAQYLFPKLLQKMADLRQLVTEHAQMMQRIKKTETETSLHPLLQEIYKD
Briefly: in vitro PPARδ transactivation (GAL4-LBD luciferase reporter in HEK-293 cells). Format: cell-based.
Source text: as §2, §1
On the technique in general: In a reporter assay the amount or activity of a reporter protein is the signal.

A further assay relates to Male Swiss albino mice. Kind of assay: plasma triglyceride lowering in Swiss albino mice. Particulars: 1 mg/kg orally for 6 days, plasma triglycerides. In kind it is in vivo. The method, then: Male Swiss albino mice (SAM) were obtained from National Institute Nutrition (NIN, Hyderabad, India) and housed in Dr. Reddy's Laboratories Ltd (DRL) animal house. All these animals were maintained under 12 hour light and dark cycle at 25±1° C. Animals were given standard laboratory chow (NIN, Hyderabad, India) and water, ad libitum. Mice of 20-25 grams body weight range were used. See Olivier, et al., Atherosclerosis, 1988, 70:107-114, incorporated herein by reference in its entirety. The test compounds were administered orally to mice at the doses shown in the following in table for 6 days. […] After centrifugation, plasma was separated for plasma triglyceride and total cholesterol measurement. See Wieland, Methods of Enzymatic Analysis, Bergermeyer, ed., 1963, 211-214; Trinder, Ann. Clin. Biochenz., 1969, 6:24-27, incorporated herein by reference in their entireties. Measurement of cholesterol and plasma triglyceride was done using a […] autoanalyser (Merck). The percent reductions in plasma triglycerides (TG)/total cholesterol were calculated according to the following formula: [formula] OC=Zero day control group value OT=Zero day treated group value TC=Test day control group value TT=Test day treated group value.

Assay [1] deals with hypercholesterolemic Male Sprague Dawley rats. Kind of assay: lipid lowering in hypercholesterolemic Sprague Dawley rats. In kind it is in vivo. Particulars: hypercholesterolemic SD rats, 3 mg/kg orally for 3 days. As to the method: Male Sprague Dawley rats (NIN stock) were bred in DRL animal house. Animals were maintained under 12 hour light and dark cycle at 25±1° C. Rats of 180-200 gram body weight range were used for the experiment. Animals were made hypercholesterolemic by feeding 2% cholesterol and 1% sodium cholate mixed with standard laboratory chow (NIN) for 6 days. Throughout the experimental period the animals were maintained on the same diet. Control rats were treated with vehicle alone (0.25% CMC; 10 ml/kg). Blood samples were collected in fed state 1 hour after drug administration on 0 and 3 days of treatment from the retro-orbital sinus through heparinized capillary tubes containing EDTA. After centrifugation, plasma sample was separated for total cholesterol, HDL and plasma triglyceride measurement. Measurement of total cholesterol, HDL and plasma triglyceride was done using a Vitalab Selectra autoanalyser (Merck). HDL was measured using a commercial kit. LDL and VLDL cholesterol were calculated from the data obtained for total cholesterol, HDL and plasma triglyceride.
The percent reductions in plasma triglycerides (TG)/total cholesterol (TC) were calculated as described in Example 55. The levels of LDL and VLDL cholesterol were calculated according to the following formulas: LDL cholesterol in mg/dl=[Total cholesterol−HDL cholesterol−Triglyceride/5] VLDL cholesterol in mg/dl=[Total cholesterol−HDL cholesterol−LDL cholesterol]

Structures are written as SMILES.

On to `O=C(O)C1(Cc2ccc(OCc3cc(-c4ccc(C(F)(F)F)cc4)no3)cc2)CCCO1` (centres unmarked) [Example 36], for which the “PPARα luciferase fold activation relative to untreated cells” value is on record as 4.1 on human PPARα (1 μM), 4.9 at human PPARα (10 μM) and 5.4 at human PPARα (50 μM). In addition, the results for the “PPARγ luciferase fold activation relative to untreated cells” value on human PPARγ1 (1 μM), at human PPARγ1 (10 μM) and on human PPARγ1 (50 μM) were 4.3, 9.8 and 13.5, respectively. The “PPARδ luciferase fold activation relative to untreated cells” value at human PPARδ (1 μM) stood at 0.9; on human PPARδ (10 μM) it was 26.4; at human PPARδ (50 μM), 23.2. Moreover, the “% reduction in TG” value with Male Swiss albino mice is 26%. In addition, the “% Reduction TG” value in assay [1] (plasma triglycerides) worked out at 63%. Besides, the “% Reduction TC” value in assay [1] (total cholesterol) is given as 52%. The “% Reduction LDL” value in assay [1] (LDL cholesterol calculated from TC, HDL, TG) is given as 62%. Moreover, in assay [1] (values represent % increase), the HDL % increase is listed as 128%.

(Values after patent publication US20080045580A1, “Novel Isoxazole Compounds Having Ppar Agonist Activity” (DR REDDY'S LABORATORIES LIMITED, priority 2004, published 2008).)
